Laboratory results: ChEMBL document CHEMBL1201862, “PubChem BioAssay data set” (2004)
Blank lines part the entries; values can stand above or below the compound they belong to. The source made the active and inactive calls.

Experiments:
[1] = A2780 cell killing – plate reader, dry powder samples, cytotoxicity control, dose response (AID 743046); type: functional, cell-based
Paired box protein Pax-8 = Paired box protein Pax-8 (Homo sapiens, UniProt Q06710); experiment: PAX8 transcriptional activity inhibition in RMG-I – RMG-I cells, luciferase, cherry-pick, dose response (AID 687027); type: functional, cell-based;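 also: luciferase reporter driven by Pax8 target thyroperoxidase promoter measured by SteadyGlo luminescence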
Chain of Paired box protein Pax-8 (Q06710 whole entry): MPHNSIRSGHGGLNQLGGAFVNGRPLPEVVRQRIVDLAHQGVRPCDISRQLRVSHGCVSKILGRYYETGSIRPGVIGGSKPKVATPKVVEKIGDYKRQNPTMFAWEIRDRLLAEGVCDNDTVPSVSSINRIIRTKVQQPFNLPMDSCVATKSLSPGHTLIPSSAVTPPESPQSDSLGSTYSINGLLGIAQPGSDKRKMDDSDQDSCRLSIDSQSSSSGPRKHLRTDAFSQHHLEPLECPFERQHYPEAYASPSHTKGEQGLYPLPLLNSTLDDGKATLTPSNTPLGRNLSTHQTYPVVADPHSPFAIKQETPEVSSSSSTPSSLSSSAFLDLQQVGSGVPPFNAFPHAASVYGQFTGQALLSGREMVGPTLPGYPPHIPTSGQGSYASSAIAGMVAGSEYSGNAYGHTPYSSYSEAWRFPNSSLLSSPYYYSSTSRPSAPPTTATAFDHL

[2] = OVCAR8 cell viability loss – plate reader, dry powder samples, PAX8 project, dose response (AID 743197); type: functional, cell-based; conditions: OVCAR-8
[3] = Late-stage results from the probe development effort to identify antagonists of arginine vasopressin receptor 1a (AVPR1a): fluorescence-based cell-based dose response OXTR inhibition counterscreen assay.; type: functional
Vasopressin V2 receptor = Vasopressin V2 receptor (Homo sapiens, UniProt P30518); experiment: Late-stage results from the probe development effort to identify antagonists of arginine vasopressin receptor 1a (AVPR1a): fluorescence-based cell-based dose response AVPR2 inhibition counterscreen assay.; type: functional
Chain of Vasopressin V2 receptor (P30518 whole entry): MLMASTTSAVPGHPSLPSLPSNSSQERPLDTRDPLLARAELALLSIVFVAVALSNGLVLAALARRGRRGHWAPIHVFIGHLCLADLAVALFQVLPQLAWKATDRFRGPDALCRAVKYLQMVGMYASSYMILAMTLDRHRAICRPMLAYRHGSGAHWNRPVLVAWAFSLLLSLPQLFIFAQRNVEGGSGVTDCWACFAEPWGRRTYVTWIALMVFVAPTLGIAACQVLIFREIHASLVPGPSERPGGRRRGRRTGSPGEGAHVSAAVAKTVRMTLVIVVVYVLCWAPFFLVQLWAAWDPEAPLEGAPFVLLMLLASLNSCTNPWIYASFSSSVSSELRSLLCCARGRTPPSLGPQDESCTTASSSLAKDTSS

Vasopressin V1b receptor = Vasopressin V1b receptor (Homo sapiens, UniProt P47901); experiment: Late-stage results from the probe development effort to identify antagonists of arginine vasopressin receptor 1a (AVPR1a): fluorescence-based cell-based dose response AVPR1b inhibition counterscreen assay.; type: functional
Chain of Vasopressin V1b receptor (P47901 whole entry): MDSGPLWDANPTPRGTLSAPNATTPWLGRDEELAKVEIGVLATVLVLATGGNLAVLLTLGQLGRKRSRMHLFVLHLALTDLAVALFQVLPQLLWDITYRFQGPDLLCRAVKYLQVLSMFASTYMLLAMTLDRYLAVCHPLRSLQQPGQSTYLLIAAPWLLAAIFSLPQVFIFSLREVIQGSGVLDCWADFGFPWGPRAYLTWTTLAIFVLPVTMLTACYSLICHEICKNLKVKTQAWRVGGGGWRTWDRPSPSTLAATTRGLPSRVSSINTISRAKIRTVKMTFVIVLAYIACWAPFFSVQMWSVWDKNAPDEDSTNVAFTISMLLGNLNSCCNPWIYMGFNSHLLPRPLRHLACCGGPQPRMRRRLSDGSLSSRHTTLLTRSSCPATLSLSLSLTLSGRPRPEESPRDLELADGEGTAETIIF

[4] = Late-stage results from the probe development effort to identify antagonists of arginine vasopressin receptor 1a (AVPR1a): fluorescence-based cell-based dose response AVPR1a inhibition assay.; type: functional
[5] = general cell-killing toxicity readout – plate reader, dry powder samples, cytotoxicity control for PAX8 inhibitor project, dose response (AID 743021); type: functional, cell-based
[6] = OVCAR-3 cell viability loss – plate reader, dry powder samples, PAX8 inhibitor project, dose response (AID 743044); type: functional, cell-based
[7] = cytotoxicity toward Colo320 cells – cell-based, CellTiter-Glo luminescence, IC50, dose response (AID 1117334); type: functional; conditions: COLO 320
[8] = RKO cell viability reduction, dose response, CellTiter-Glo luminescence (AID 1117322); type: functional
[9] = CellTiter-Glo luminescence survival assay, SW480 colon tumor line, concentration-response curve, half-maximal inhibitory concentration (AID 1117338); type: functional
[10] = rise of 4N DNA cells, HeLa – IC50, dose response (AID 1117351); type: functional, cell-based
[11] = Reduced DLD-1 viability, concentration-response, CellTiter-Glo luminescence (AID 1117352); type: functional
[12] = cytotoxicity toward HCT116 cells – cell-based, CellTiter-Glo luminescence, IC50, dose response (AID 1117332); type: functional; conditions: HCT-116
[13] = SNU-C1 cell viability reduction, dose response, CellTiter-Glo luminescence (AID 1117323); type: functional, cell-based
[14] = rise of 2N DNA cells, HeLa – IC50, dose response (AID 1117349); type: functional, cell-based
[15] = cytotoxicity toward HT-29 cells – cell-based, CellTiter-Glo luminescence, IC50, dose response (AID 1117330); type: functional
[16] = target: Heat shock protein HSP 90-alpha (Homo sapiens, UniProt P07900); experiment: Luminescence-based dose response biochemical high throughput screening assay for inhibitors of the Heat Shock Protein 90 (HSP90). [Related pubchem assays: 1831 (Summary AID.), 1846 (Confirmation screen.), 1789 (Primary screen.)]
[17] = target: T1, Heat shock factor protein 1 (Mus musculus, UniProt P38532); experiment: enhancement of HSF1-driven luciferase signal – cell-based, NIH3T3, luminescence, dose retest, confirmation (AID 435004); type: functional;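 also: stress induced by proteasome inhibitor MG132 added 30 min after compound; luciferase reporter driven by HSF1 response element in NIH3T3 cells; actives raise luminescence as potentiators of the MG132 stress response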
T1 sequence (P38532 whole entry): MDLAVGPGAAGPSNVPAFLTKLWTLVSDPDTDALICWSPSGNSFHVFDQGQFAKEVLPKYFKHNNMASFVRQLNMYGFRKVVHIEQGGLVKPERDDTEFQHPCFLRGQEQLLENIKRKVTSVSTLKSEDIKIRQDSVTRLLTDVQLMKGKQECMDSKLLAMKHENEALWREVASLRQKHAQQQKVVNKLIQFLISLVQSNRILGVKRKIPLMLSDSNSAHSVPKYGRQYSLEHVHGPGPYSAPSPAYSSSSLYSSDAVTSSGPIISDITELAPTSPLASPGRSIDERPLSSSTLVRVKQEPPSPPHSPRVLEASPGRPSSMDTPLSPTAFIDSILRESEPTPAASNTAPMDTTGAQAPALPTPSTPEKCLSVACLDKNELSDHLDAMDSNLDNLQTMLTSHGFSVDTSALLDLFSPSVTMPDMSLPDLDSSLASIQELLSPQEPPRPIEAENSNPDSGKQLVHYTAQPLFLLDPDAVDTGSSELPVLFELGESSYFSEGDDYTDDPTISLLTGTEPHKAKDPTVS

HEK293 [18] = experiment: cells; conditions: Homo sapiens
[19] = potency of ADAM10 substrate cleavage blockers – biochemical, QFRET, dose response (AID 743254);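 also: ADAM10 enzyme with the DM2 quenched FRET peptide as substrate; EDANS fluorescence gain as the protease cuts the substrate; inhibitor potency against ADAM10 proteolytic activity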
HEK293 [20] = experiment: cells; conditions: Homo sapiens; remark: listed apart in the source
[21] = target: Disintegrin and metalloproteinase domain-containing protein 17 (Homo sapiens, UniProt P78536); experiment: inhibition of ADAM17 substrate cleavage – biochemical, quenched FRET substrate, counter-screen for ADAM10 exosite inhibitor project, dose response (AID 743253)
Chain of Disintegrin and metalloproteinase domain-containing protein 17 (P78536 whole entry, the tested form may be a part): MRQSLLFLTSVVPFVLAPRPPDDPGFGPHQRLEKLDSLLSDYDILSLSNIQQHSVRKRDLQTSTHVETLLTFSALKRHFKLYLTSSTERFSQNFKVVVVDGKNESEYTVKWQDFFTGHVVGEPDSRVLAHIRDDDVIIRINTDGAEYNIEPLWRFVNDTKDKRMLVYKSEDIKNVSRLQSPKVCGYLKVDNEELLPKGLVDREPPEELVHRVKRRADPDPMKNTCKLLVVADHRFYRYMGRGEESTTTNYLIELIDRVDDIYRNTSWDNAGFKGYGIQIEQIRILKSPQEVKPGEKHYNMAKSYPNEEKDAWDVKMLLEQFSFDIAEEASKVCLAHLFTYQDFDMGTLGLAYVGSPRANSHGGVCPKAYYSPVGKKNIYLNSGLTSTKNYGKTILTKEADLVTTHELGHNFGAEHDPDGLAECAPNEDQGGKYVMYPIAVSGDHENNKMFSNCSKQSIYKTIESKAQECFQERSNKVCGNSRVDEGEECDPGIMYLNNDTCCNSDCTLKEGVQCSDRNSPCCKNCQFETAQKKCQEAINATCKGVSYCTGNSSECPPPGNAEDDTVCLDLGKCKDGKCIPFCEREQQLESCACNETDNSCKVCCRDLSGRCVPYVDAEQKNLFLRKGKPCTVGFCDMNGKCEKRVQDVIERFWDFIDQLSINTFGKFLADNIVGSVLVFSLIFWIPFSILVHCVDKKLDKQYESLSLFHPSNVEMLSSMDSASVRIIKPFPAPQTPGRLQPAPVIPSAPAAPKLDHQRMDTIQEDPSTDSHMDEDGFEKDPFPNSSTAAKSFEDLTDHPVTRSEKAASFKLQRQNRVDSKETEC

Compound: C[C@H](CO)N1C[C@H](C)[C@H](CN(C)S(=O)(=O)c2ccccc2)OCCCC[C@H](C)Oc2ccc(NS(=O)(=O)c3ccc(Cl)cc3)cc2C1=O
AC50 [1]: 6.87 µM (active) | AC50 (Paired box protein Pax-8): 10.1 µM (active) | AC50 [2]: 3.41 µM (active)

Compound: O=C(C1CCN(c2ccc(F)cn2)CC1)N(CC1CC1)c1ccc(Cl)cc1
IC50 [3]: 9 µM (active) | IC50 (Vasopressin V2 receptor): 24.3 µM (inactive) | IC50 (Vasopressin V1b receptor): 20.5 µM (inactive) | IC50 [4]: 0.0241 µM (active)

Compound: Cc1ccccc1-c1ccc2c(c1)O[C@H](CN(C)C(=O)Nc1ccc(C(F)(F)F)cc1)[C@H](C)CN([C@@H](C)CO)S2(=O)=O
AC50 [5]: 44.3 µM (active) | AC50 [1]: < 0.26 µM (active) | AC50 (Paired box protein Pax-8): 9.3 µM (active) | AC50 [6]: 42.5 µM (active)

Compound: O=C1C(O)=C([C@H]2CC[C@H](c3ccc(Cl)cc3)CC2)C(=O)c2ccccc21 [ATOVAQUONE]
IC50 [7]: 0.176 µM (active) | IC50 [8]: 0.114 µM (active) | IC50 [9]: 0.0946 µM (active) | IC50 [10]: > 10 µM (inactive) | IC50 [11]: 0.0838 µM (active) | IC50 [12]: 0.138 µM (active) | IC50 [13]: 0.368 µM (active) | IC50 [14]: > 10 µM (inactive) | IC50 [15]: 0.411 µM (active)

IC50 [16]: 16.7 µM (not active)
Compound: COC(=O)NCCOC(=O)N(O)c1ccc(Br)cc1

IC50 [16]: 2.13 µM (active) | EC50 [17]: 46.9 µM (active)
Compound: CCC(=O)Nc1ccccc1C(=O)OCC(=O)c1ccccc1

Compound: CC1(Cc2cccc(C#N)c2)C(=O)Nc2ccc(-c3cccc(C(F)(F)F)c3)cc21 (configuration not stated)
EC50 (HEK293 [18]): > 59.7 µM (inactive) | IC50 [19]: 8.9 µM (active) | EC50 (HEK293 [20]): > 59.7 µM (inactive) | IC50 [21]: > 69.5 µM (inactive)
